± gives the standard deviation of the averaged measurements.
System: SW620
Experiment: cell viability relative to vehicle (resazurin, 96 h); higher = more viable
Method: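 SW620 WT or MTHFD2-/- cells were treated for 96 h with a compound dilution series (log10 M) in RPMI with normal or dialysed FBS. Viability was read by resazurin and is given as % of vehicle.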

CN(Cc1cnc2nc(N)nc(N)c2n1)c1ccc(C(=O)N[C@@H](CCC(=O)O)C(=O)O)cc1 [methotrexate] showed a cell viability (log10 compound concentration (M): -5, supplement / serum: Hypoxanthine + AICAr 10μM, base medium: RPMI + dialysed FBS) of 5.12 ± 1.1%, a cell viability (log10 compound concentration (M): -5, supplement / serum: Hypoxanthine + AICAr 30μM, base medium: RPMI + dialysed FBS) of 4.87 ± 0.68% and a cell viability (log10 compound concentration (M): -5, supplement / serum: Hypoxanthine + AICAr 50μM, base medium: RPMI + dialysed FBS) of 5.34 ± 1.1%. It also gave a cell viability (log10 compound concentration (M): -5, supplement / serum: Hypoxanthine + AICAr 100μM, base medium: RPMI + dialysed FBS) of 5.12 ± 1.7%, a cell viability (log10 compound concentration (M): -5, supplement / serum: Hypoxanthine, base medium: RPMI + dialysed FBS) of 4.67 ± 1.5% and a cell viability (log10 compound concentration (M): -5, supplement / serum: RPMI + Dialyzed FBS + 50μM Hypoxanthine, base medium: RPMI-1640) of 6.47 ± 1.1%. For the same compound, the cell viability (log10 compound concentration (M): -5, supplement / serum: RPMI + Dialyzed FBS, base medium: RPMI-1640) was 5.07 ± 1.9%, the cell viability (log10 compound concentration (M): -5, supplement / serum: RPMI + Normal FBS, base medium: RPMI-1640) was 19.1 ± 5.3% and the cell viability (log10 compound concentration (M): -5, supplement / serum: Vehicle, base medium: RPMI + dialysed FBS) was 4.01 ± 0.78%. It also gave a cell viability (log10 compound concentration (M): -5.47712, supplement / serum: Hypoxanthine + AICAr 10μM, base medium: RPMI + dialysed FBS) of 5.68 ± 0.95%, a cell viability (log10 compound concentration (M): -5.47712, supplement / serum: Hypoxanthine + AICAr 30μM, base medium: RPMI + dialysed FBS) of 4.86 ± 1.6% and a cell viability (log10 compound concentration (M): -5.47712, supplement / serum: Hypoxanthine + AICAr 50μM, base medium: RPMI + dialysed FBS) of 6.17 ± 1%. The cell viability (log10 compound concentration (M): -5.47712, supplement / serum: Hypoxanthine + AICAr 100μM, base medium: RPMI + dialysed FBS) was 5.44 ± 1.4%, the cell viability (log10 compound concentration (M): -5.47712, supplement / serum: Hypoxanthine, base medium: RPMI + dialysed FBS) was 5.19 ± 1.6% and the cell viability (log10 compound concentration (M): -5.47712, supplement / serum: RPMI + Dialyzed FBS + 50μM Hypoxanthine, base medium: RPMI-1640) was 7.16 ± 0.52%. It also gave a cell viability (log10 compound concentration (M): -5.47712, supplement / serum: RPMI + Dialyzed FBS, base medium: RPMI-1640) of 5.32 ± 0.52%, a cell viability (log10 compound concentration (M): -5.47712, supplement / serum: RPMI + Normal FBS, base medium: RPMI-1640) of 22.3 ± 5.8% and a cell viability (log10 compound concentration (M): -5.47712, supplement / serum: Vehicle, base medium: RPMI + dialysed FBS) of 3.96 ± 1.2%. It also gave a cell viability (log10 compound concentration (M): -5.95424, supplement / serum: Hypoxanthine + AICAr 10μM, base medium: RPMI + dialysed FBS) of 6.05 ± 1.3%, a cell viability (log10 compound concentration (M): -5.95424, supplement / serum: Hypoxanthine + AICAr 30μM, base medium: RPMI + dialysed FBS) of 4.88 ± 1.4% and a cell viability (log10 compound concentration (M): -5.95424, supplement / serum: Hypoxanthine + AICAr 50μM, base medium: RPMI + dialysed FBS) of 6.61 ± 0.99%. The cell viability (log10 compound concentration (M): -5.95424, supplement / serum: Hypoxanthine + AICAr 100μM, base medium: RPMI + dialysed FBS) was 6.46 ± 0.98%, the cell viability (log10 compound concentration (M): -5.95424, supplement / serum: Hypoxanthine, base medium: RPMI + dialysed FBS) was 4.87 ± 2% and the cell viability (log10 compound concentration (M): -5.95424, supplement / serum: RPMI + Dialyzed FBS + 50μM Hypoxanthine, base medium: RPMI-1640) was 7.47 ± 1.9%. It also gave a cell viability (log10 compound concentration (M): -5.95424, supplement / serum: RPMI + Dialyzed FBS, base medium: RPMI-1640) of 5.35 ± 1.1%, a cell viability (log10 compound concentration (M): -5.95424, supplement / serum: RPMI + Normal FBS, base medium: RPMI-1640) of 14.7 ± 1.4% and a cell viability (log10 compound concentration (M): -5.95424, supplement / serum: Vehicle, base medium: RPMI + dialysed FBS) of 4.17 ± 1.3%. For the same compound, the cell viability (log10 compound concentration (M): -6.43136, supplement / serum: Hypoxanthine + AICAr 10μM, base medium: RPMI + dialysed FBS) was 6.29 ± 1.6%, the cell viability (log10 compound concentration (M): -6.43136, supplement / serum: Hypoxanthine + AICAr 30μM, base medium: RPMI + dialysed FBS) was 5.47 ± 0.35% and the cell viability (log10 compound concentration (M): -6.43136, supplement / serum: Hypoxanthine + AICAr 50μM, base medium: RPMI + dialysed FBS) was 7.05 ± 1.2%. It also gave a cell viability (log10 compound concentration (M): -6.43136, supplement / serum: Hypoxanthine + AICAr 100μM, base medium: RPMI + dialysed FBS) of 6.81 ± 0.79%, a cell viability (log10 compound concentration (M): -6.43136, supplement / serum: Hypoxanthine, base medium: RPMI + dialysed FBS) of 5.56 ± 1.6% and a cell viability (log10 compound concentration (M): -6.43136, supplement / serum: RPMI + Dialyzed FBS + 50μM Hypoxanthine, base medium: RPMI-1640) of 7.77 ± 1.5%. It also gave a cell viability (log10 compound concentration (M): -6.43136, supplement / serum: RPMI + Dialyzed FBS, base medium: RPMI-1640) of 4.63 ± 0.63%, a cell viability (log10 compound concentration (M): -6.43136, supplement / serum: RPMI + Normal FBS, base medium: RPMI-1640) of 17 ± 3.4% and a cell viability (log10 compound concentration (M): -6.43136, supplement / serum: Vehicle, base medium: RPMI + dialysed FBS) of 4.16 ± 1.3%. The cell viability (log10 compound concentration (M): -6.90849, supplement / serum: Hypoxanthine + AICAr 10μM, base medium: RPMI + dialysed FBS) was 7.03 ± 0.69%, the cell viability (log10 compound concentration (M): -6.90849, supplement / serum: Hypoxanthine + AICAr 30μM, base medium: RPMI + dialysed FBS) was 5.61 ± 0.69% and the cell viability (log10 compound concentration (M): -6.90849, supplement / serum: Hypoxanthine + AICAr 50μM, base medium: RPMI + dialysed FBS) was 6.93 ± 1.5%. It also gave a cell viability (log10 compound concentration (M): -6.90849, supplement / serum: Hypoxanthine + AICAr 100μM, base medium: RPMI + dialysed FBS) of 6.51 ± 1.3%, a cell viability (log10 compound concentration (M): -6.90849, supplement / serum: Hypoxanthine, base medium: RPMI + dialysed FBS) of 5.78 ± 0.88% and a cell viability (log10 compound concentration (M): -6.90849, supplement / serum: RPMI + Dialyzed FBS + 50μM Hypoxanthine, base medium: RPMI-1640) of 8.66 ± 0.88%. It also gave a cell viability (log10 compound concentration (M): -6.90849, supplement / serum: RPMI + Dialyzed FBS, base medium: RPMI-1640) of 5.1 ± 0.99%, a cell viability (log10 compound concentration (M): -6.90849, supplement / serum: RPMI + Normal FBS, base medium: RPMI-1640) of 20.5 ± 3.8% and a cell viability (log10 compound concentration (M): -6.90849, supplement / serum: Vehicle, base medium: RPMI + dialysed FBS) of 4.6 ± 0.73%. For the same compound, the cell viability (log10 compound concentration (M): -7.38561, supplement / serum: Hypoxanthine + AICAr 10μM, base medium: RPMI + dialysed FBS) was 15.3 ± 1.1%, the cell viability (log10 compound concentration (M): -7.38561, supplement / serum: Hypoxanthine + AICAr 30μM, base medium: RPMI + dialysed FBS) was 7.88 ± 2.1% and the cell viability (log10 compound concentration (M): -7.38561, supplement / serum: Hypoxanthine + AICAr 50μM, base medium: RPMI + dialysed FBS) was 10.8 ± 2.8%. It also gave a cell viability (log10 compound concentration (M): -7.38561, supplement / serum: Hypoxanthine + AICAr 100μM, base medium: RPMI + dialysed FBS) of 9.102 ± 0.063%, a cell viability (log10 compound concentration (M): -7.38561, supplement / serum: Hypoxanthine, base medium: RPMI + dialysed FBS) of 14.7 ± 1.8% and a cell viability (log10 compound concentration (M): -7.38561, supplement / serum: RPMI + Dialyzed FBS + 50μM Hypoxanthine, base medium: RPMI-1640) of 24.7 ± 5%. For the same compound, the cell viability (log10 compound concentration (M): -7.38561, supplement / serum: RPMI + Dialyzed FBS, base medium: RPMI-1640) was 5.71 ± 1.2%, the cell viability (log10 compound concentration (M): -7.38561, supplement / serum: RPMI + Normal FBS, base medium: RPMI-1640) was 42.8 ± 6.6% and the cell viability (log10 compound concentration (M): -7.38561, supplement / serum: Vehicle, base medium: RPMI + dialysed FBS) was 4.77 ± 1.2%. For the same compound, the cell viability (log10 compound concentration (M): -7.86273, supplement / serum: Hypoxanthine + AICAr 10μM, base medium: RPMI + dialysed FBS) was 103 ± 12%, the cell viability (log10 compound concentration (M): -7.86273, supplement / serum: Hypoxanthine + AICAr 30μM, base medium: RPMI + dialysed FBS) was 75.9 ± 16% and the cell viability (log10 compound concentration (M): -7.86273, supplement / serum: Hypoxanthine + AICAr 50μM, base medium: RPMI + dialysed FBS) was 65.1 ± 3%. The cell viability (log10 compound concentration (M): -7.86273, supplement / serum: Hypoxanthine + AICAr 100μM, base medium: RPMI + dialysed FBS) was 39.1 ± 11%, the cell viability (log10 compound concentration (M): -7.86273, supplement / serum: Hypoxanthine, base medium: RPMI + dialysed FBS) was 92.6 ± 16% and the cell viability (log10 compound concentration (M): -7.86273, supplement / serum: RPMI + Dialyzed FBS + 50μM Hypoxanthine, base medium: RPMI-1640) was 85 ± 1.5%. The cell viability (log10 compound concentration (M): -7.86273, supplement / serum: RPMI + Dialyzed FBS, base medium: RPMI-1640) was 15.5 ± 3.5%, the cell viability (log10 compound concentration (M): -7.86273, supplement / serum: RPMI + Normal FBS, base medium: RPMI-1640) was 53.8 ± 9.3% and the cell viability (log10 compound concentration (M): -7.86273, supplement / serum: Vehicle, base medium: RPMI + dialysed FBS) was 10.7 ± 0.97%. The cell viability (log10 compound concentration (M): -8.33985, supplement / serum: Hypoxanthine + AICAr 10μM, base medium: RPMI + dialysed FBS) was 117 ± 7.8%, the cell viability (log10 compound concentration (M): -8.33985, supplement / serum: Hypoxanthine + AICAr 30μM, base medium: RPMI + dialysed FBS) was 93.6 ± 14% and the cell viability (log10 compound concentration (M): -8.33985, supplement / serum: Hypoxanthine + AICAr 50μM, base medium: RPMI + dialysed FBS) was 119.7 ± 1%. It also gave a cell viability (log10 compound concentration (M): -8.33985, supplement / serum: Hypoxanthine + AICAr 100μM, base medium: RPMI + dialysed FBS) of 92.9 ± 8.4%, a cell viability (log10 compound concentration (M): -8.33985, supplement / serum: Hypoxanthine, base medium: RPMI + dialysed FBS) of 99.3 ± 9% and a cell viability (log10 compound concentration (M): -8.33985, supplement / serum: RPMI + Dialyzed FBS + 50μM Hypoxanthine, base medium: RPMI-1640) of 99.18 ± 0.23%. For the same compound, the cell viability (log10 compound concentration (M): -8.33985, supplement / serum: RPMI + Dialyzed FBS, base medium: RPMI-1640) was 72.4 ± 12%, the cell viability (log10 compound concentration (M): -8.33985, supplement / serum: RPMI + Normal FBS, base medium: RPMI-1640) was 95.4 ± 29% and the cell viability (log10 compound concentration (M): -8.33985, supplement / serum: Vehicle, base medium: RPMI + dialysed FBS) was 109 ± 8.1%. The cell viability (log10 compound concentration (M): -8.81697, supplement / serum: Hypoxanthine + AICAr 10μM, base medium: RPMI + dialysed FBS) was 117 ± 3%, the cell viability (log10 compound concentration (M): -8.81697, supplement / serum: Hypoxanthine + AICAr 30μM, base medium: RPMI + dialysed FBS) was 98.4 ± 1.9% and the cell viability (log10 compound concentration (M): -8.81697, supplement / serum: Hypoxanthine + AICAr 50μM, base medium: RPMI + dialysed FBS) was 108 ± 4.7%. It also gave a cell viability (log10 compound concentration (M): -8.81697, supplement / serum: Hypoxanthine + AICAr 100μM, base medium: RPMI + dialysed FBS) of 90.3 ± 4.8%, a cell viability (log10 compound concentration (M): -8.81697, supplement / serum: Hypoxanthine, base medium: RPMI + dialysed FBS) of 100 ± 13% and a cell viability (log10 compound concentration (M): -8.81697, supplement / serum: RPMI + Dialyzed FBS + 50μM Hypoxanthine, base medium: RPMI-1640) of 102 ± 6.8%.

— the supplement of paper PMC10132981, “Formate overflow drives toxic folate trapping in MTHFD1 inhibited cancer cells” (Nature Metabolism, 2023)
